Experiments:
Assay in all cases: relative viability (nuclei count vs DMSO), 5 days (fraction); higher = more cells survive
Temozolomide = compound: Cn1nnc2c(C(N)=O)ncn2c1=O [Temozolomide]
Procedure, shortened: (§1)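 In 1536-well plates, lung cancer cell lines rested overnight at 37 °C before five library-drug doses (not always all listed), √10 apart, were pinned onto vehicle-anchored plates. Nuclei were counted with MetaXpress from 4× Hoechst images taken after 5 days without medium change. Viability compares treated-well with vehicle-well nuclei as a median over plates, and plates needed control CV below 25% plus at least one doubling to pass.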

AZD5582 = compound: C[C@@H](C(=O)N[C@@H](C1CCCCC1)C(=O)N2CCC[C@H]2C(=O)N[C@@H]3[C@@H](CC4=CC=CC=C34)OCC#CC#CCO[C@@H]5CC6=CC=CC=C6[C@@H]5NC(=O)[C@@H]7CCCN7C(=O)[C@H](C8CCCCC8)NC(=O)[C@H](C)NC)NC [AZD5582]
Procedure, shortened: as §1

[1] = compound: Cn1nnc2c(C(N)=O)ncn2c1=O [Temozolomide] + Nc1nc2[nH]cc(CCc3ccc(C(=O)N[C@@H](CCC(=O)O)C(=O)O)cc3)c2c(=O)[nH]1 [Pemetrexed] (partner 0.2 µM)
Procedure, shortened: (§2)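 Lung cancer cell lines were pin-tool dosed in 1536-well plates on the day after seeding, with either a lone drug or a fixed anchor-drug dose plus five library-drug doses (not always all listed) in √10 steps. Nuclei were counted on 4× images after 5 days. Relative viability is the ratio of treated-well to vehicle-well nuclei counts, with each value a median of duplicate plates.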

AZD5582 + Alpelisib = compound: C[C@@H](C(=O)N[C@@H](C1CCCCC1)C(=O)N2CCC[C@H]2C(=O)N[C@@H]3[C@@H](CC4=CC=CC=C34)OCC#CC#CCO[C@@H]5CC6=CC=CC=C6[C@@H]5NC(=O)[C@@H]7CCCN7C(=O)[C@H](C8CCCCC8)NC(=O)[C@H](C)NC)NC [AZD5582] + Cc1nc(NC(=O)N2CCC[C@H]2C(N)=O)sc1-c1ccnc(C(C)(C)C(F)(F)F)c1 [Alpelisib] (partner 2 µM)
Procedure, shortened: as §2

Row | Cell Line | relative viability (Temozolomide; 0.2 µM) | relative viability (Temozolomide; 0.6325 µM) | relative viability (Temozolomide; 2 µM) | relative viability (Temozolomide; 6.325 µM) | relative viability (Temozolomide; 20 µM) | relative viability (AZD5582; 0.001581 µM) | relative viability (AZD5582; 0.005 µM) | relative viability (AZD5582; 0.01581 µM) | relative viability (AZD5582; 0.05 µM) | relative viability ([1]; first compound 0.2 µM) | relative viability ([1]; first compound 0.6325 µM) | relative viability ([1]; first compound 2 µM) | relative viability ([1]; first compound 6.325 µM) | relative viability ([1]; first compound 20 µM) | relative viability (AZD5582 + Alpelisib; first compound 0.001581 µM) | relative viability (AZD5582 + Alpelisib; first compound 0.005 µM) | relative viability (AZD5582 + Alpelisib; first compound 0.01581 µM) | relative viability (AZD5582 + Alpelisib; first compound 0.05 µM)
1 | NCI-H358 | 0.855 | 1.02 | 1 | 0.904 | 0.777 | 0.915 | 1.17 | 0.944 | 0.972 | 0.196 | 0.173 | 0.18 | 0.164 | 0.17 | 0.725 | 1.02 | 0.89 | 1.02
2 | HCC-827 | 1.08 | 1.05 | 1.05 | 1 | 0.177 | 1.03 | 1.07 | 0.991 | 0.993 | 0.176 | 0.273 | 0.249 | 0.264 | 0.16 | 0.898 | 1.02 | 0.985 | 1.04
3 | NCI-H1355 | 1.01 | 0.985 | 1.06 | 0.947 | 0.982 | 0.902 | 1.01 | 0.771 | 0.823 | 1.01 | 1.03 | 0.963 | 1 | 0.998 | 0.724 | 0.832 | 0.82 | 0.852
4 | NCI-H1793 |  | 0.919 | 0.918 | 0.87 | 0.636 | 0.897 | 1.05 | 0.822 | 0.797 |  | 1.19 | 1.03 | 0.718 | 0.792 | 0.637 | 0.856 | 0.69 | 0.887
5 | CAL-12T | 0.908 | 1.04 | 0.959 | 0.95 | 0.95 | 0.647 | 0.724 | 0.784 | 0.551 | 1.34 | 1.12 | 1.1 | 1.16 | 1.39 |  | 0.713 | 1.24 | 1.01
6 | NCI-H1993 | 0.866 | 0.968 | 0.953 | 0.944 | 0.758 | 0.758 | 1.1 | 0.957 | 1 | 0.517 | 0.669 | 0.598 | 0.569 | 0.525 | 0.706 | 0.669 | 0.647 | 0.671
7 | EKVX | 0.618 | 0.97 | 0.967 | 0.921 | 0.66 | 0.957 | 1.13 | 0.794 | 1.01 |  | 0.38 | 0.352 | 0.388 | 0.305 | 0.868 | 1.03 | 0.82 | 1.08
8 | NCI-H1755 | 1.08 | 0.971 | 1.04 | 0.965 | 0.818 | 0.939 | 0.99 | 0.946 | 1.05 | 0.433 | 0.43 | 0.388 | 0.39 | 0.612 | 0.875 | 0.918 | 0.874 | 0.996
9 | NCI-H2228 | 1.19 | 0.928 | 1.15 | 0.881 | 1.05 | 1.01 | 1.05 | 0.942 | 0.538 | 0.383 | 0.349 | 0.348 | 0.266 | 0.352 | 0.776 | 0.625 | 0.924 | 0.365
10 | NCI-H460 | 1.02 | 0.998 | 1 | 1.03 | 1.1 | 0.958 | 0.991 | 0.965 | 1.1 | 0.0579 | 0.0556 | 0.0638 | 0.0585 | 0.0573 | 0.401 | 0.445 | 0.536 | 0.621
11 | HCC-44 | 1.02 | 0.986 | 0.987 | 0.999 | 1.01 | 0.822 | 0.724 | 0.872 | 0.483 | 0.688 | 0.669 | 0.699 | 0.707 | 0.653 | 0.683 | 0.525 | 0.738 | 0.368
12 | BEN | 0.956 | 0.94 | 1.03 | 0.813 | 0.766 | 0.926 | 1.01 | 1.05 | 0.828 | 0.801 | 0.92 | 0.936 | 0.741 | 0.841 | 0.884 | 1.07 | 1.16 | 1.27
13 | H3255 |  | 0.96 | 0.993 | 0.884 | 0.231 | 0.94 | 1 | 0.862 | 0.831 |  | 0.544 | 0.59 | 0.543 | 0.336 | 0.596 | 0.587 | 0.629 | 0.498
14 | NCI-H1650 | 0.955 | 0.938 | 0.933 | 0.952 | 0.773 | 0.87 | 1.05 | 0.899 | 0.759 | 0.335 | 0.349 | 0.443 | 0.355 | 0.459 |  |  |  | 
15 | A-427 | 1.04 | 0.996 | 1.03 | 0.713 | 0.46 | 0.917 | 0.971 | 0.882 | 0.721 | 1.01 | 0.919 | 0.957 | 0.783 | 0.549 | 0.996 | 1.01 | 1.04 | 0.881
16 | NCI-H1651 | 0.983 | 0.997 | 0.984 | 0.997 | 0.993 | 0.932 | 1.01 | 0.952 | 1.13 | 0.58 | 0.588 | 0.591 | 0.6 | 0.617 | 1.03 | 1.02 | 0.855 | 1.15
17 | EPLC-272H | 0.98 | 0.972 | 0.997 | 0.859 | 0.677 | 0.263 |  | 0.55 | 0.116 | 0.321 | 0.322 | 0.356 | 0.247 | 0.317 | 0.635 | 0.506 | 0.136 | 0.217

Source: the supplement of paper PMC10307832
